Values quoted from earlier work, collected in patent US9833455B2, “Preparation and methods of use for ortho-aryl 5-membered heteroaryl-carboxamide containing multi-targeted kinase inhibitors” (Spacefill Enterprises LLC, priority 2011, dated 2017).

Columns and labels:
Conditions in all cases: 1 μM, duplicate, without preincubation; cited from earlier work
ERBB2 = biological target: T1, ERBB2 (Homo sapiens, UniProt P04626)
T1 construct: literature Ambit Biosciences

TYK2 (catalytic) = biological target: T2, TYK2 (catalytic) (Homo sapiens, UniProt P29597)
T2 construct: catalytic; literature Ambit Biosciences

PLK4 = biological target: T3, PLK4 (Homo sapiens, UniProt O00444)
T3 construct: literature Ambit Biosciences
T3 sequence (O00444 1-970): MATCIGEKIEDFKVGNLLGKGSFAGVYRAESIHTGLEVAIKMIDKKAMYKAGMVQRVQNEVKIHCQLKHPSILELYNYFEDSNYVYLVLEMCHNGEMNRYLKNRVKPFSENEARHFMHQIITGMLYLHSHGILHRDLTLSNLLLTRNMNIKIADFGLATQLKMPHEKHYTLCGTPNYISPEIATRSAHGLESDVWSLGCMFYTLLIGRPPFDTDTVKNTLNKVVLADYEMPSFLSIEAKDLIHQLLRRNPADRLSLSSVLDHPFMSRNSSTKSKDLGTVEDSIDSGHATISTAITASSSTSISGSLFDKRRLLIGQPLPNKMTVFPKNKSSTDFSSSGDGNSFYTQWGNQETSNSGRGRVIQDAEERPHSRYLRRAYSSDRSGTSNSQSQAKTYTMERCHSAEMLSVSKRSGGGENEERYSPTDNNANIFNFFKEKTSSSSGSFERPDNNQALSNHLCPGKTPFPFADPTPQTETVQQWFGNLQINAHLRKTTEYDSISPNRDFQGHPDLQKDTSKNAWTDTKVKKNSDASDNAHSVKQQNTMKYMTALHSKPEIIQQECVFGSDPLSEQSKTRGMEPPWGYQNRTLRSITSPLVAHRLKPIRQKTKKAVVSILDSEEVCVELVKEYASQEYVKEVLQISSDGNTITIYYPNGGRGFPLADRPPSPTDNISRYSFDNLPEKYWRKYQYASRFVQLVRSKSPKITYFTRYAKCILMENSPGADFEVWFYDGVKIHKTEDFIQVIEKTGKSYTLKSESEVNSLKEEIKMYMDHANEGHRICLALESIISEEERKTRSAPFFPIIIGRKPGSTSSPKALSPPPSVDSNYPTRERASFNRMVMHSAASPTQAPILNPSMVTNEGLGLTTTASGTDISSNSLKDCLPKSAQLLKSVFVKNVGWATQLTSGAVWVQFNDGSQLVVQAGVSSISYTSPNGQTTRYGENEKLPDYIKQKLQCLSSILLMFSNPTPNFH

CDK11 = biological target: T4, CDK11 (Homo sapiens, UniProt Q9BWU1)
T4 construct: literature Ambit Biosciences

PDGFRB = biological target: T5, PDGFRB (Homo sapiens, UniProt P09619)
T5 construct: literature Ambit Biosciences

KIT = KIT (Homo sapiens, UniProt P10721)
p38-alpha = biological target: T6, p38-alpha (Homo sapiens, UniProt Q16539)
T6 construct: literature Ambit Biosciences

RIOK2 = biological target: T7, RIOK2 (Homo sapiens, UniProt Q9BVS4)
T7 construct: literature Ambit Biosciences

PDGFRA = biological target: T8, PDGFRA (Homo sapiens, UniProt P16234)
T8 construct: literature Ambit Biosciences

p38-beta = biological target: T9, p38-beta (Homo sapiens, UniProt Q15759)
T9 construct: literature Ambit Biosciences

BRAF = biological target: T10, BRAF (Homo sapiens, UniProt P15056)
T10 construct: literature Ambit Biosciences

PRKCE = biological target: T11, PRKCE (Homo sapiens, UniProt Q02156)
T11 construct: literature Ambit Biosciences
T11 sequence (Q02156 1-737): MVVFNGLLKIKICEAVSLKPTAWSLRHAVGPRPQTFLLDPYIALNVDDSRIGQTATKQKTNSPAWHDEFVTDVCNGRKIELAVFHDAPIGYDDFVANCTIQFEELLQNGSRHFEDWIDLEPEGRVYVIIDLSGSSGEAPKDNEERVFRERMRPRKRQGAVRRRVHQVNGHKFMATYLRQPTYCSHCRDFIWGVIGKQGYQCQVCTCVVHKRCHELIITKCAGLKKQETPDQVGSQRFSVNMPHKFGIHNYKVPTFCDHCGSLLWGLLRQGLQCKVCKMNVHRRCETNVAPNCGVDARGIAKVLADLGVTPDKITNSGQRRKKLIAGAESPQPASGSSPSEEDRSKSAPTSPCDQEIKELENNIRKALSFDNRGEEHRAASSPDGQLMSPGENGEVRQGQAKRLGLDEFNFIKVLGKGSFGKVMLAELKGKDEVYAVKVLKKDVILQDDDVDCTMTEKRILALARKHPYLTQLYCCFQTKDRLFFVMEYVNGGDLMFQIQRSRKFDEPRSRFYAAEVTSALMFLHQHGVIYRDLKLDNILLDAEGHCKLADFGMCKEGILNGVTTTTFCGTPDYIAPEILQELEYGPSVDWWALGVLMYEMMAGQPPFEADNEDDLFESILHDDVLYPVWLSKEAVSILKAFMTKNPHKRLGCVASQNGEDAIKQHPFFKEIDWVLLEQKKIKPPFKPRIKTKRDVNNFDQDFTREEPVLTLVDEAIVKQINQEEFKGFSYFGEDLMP

BRAF(V600E) = BRAF(V600E) (Homo sapiens, UniProt P15056, V600E); design: literature Ambit Biosciences
MKNK1 = biological target: T12, MKNK1 (Homo sapiens, UniProt Q9BUB5)
T12 construct: literature Ambit Biosciences

PIK3CA = biological target: T13, PIK3CA (Homo sapiens, UniProt P42336)
T13 construct: literature Ambit Biosciences

Chain of BRAF(V600E) (P15056 whole entry V600E): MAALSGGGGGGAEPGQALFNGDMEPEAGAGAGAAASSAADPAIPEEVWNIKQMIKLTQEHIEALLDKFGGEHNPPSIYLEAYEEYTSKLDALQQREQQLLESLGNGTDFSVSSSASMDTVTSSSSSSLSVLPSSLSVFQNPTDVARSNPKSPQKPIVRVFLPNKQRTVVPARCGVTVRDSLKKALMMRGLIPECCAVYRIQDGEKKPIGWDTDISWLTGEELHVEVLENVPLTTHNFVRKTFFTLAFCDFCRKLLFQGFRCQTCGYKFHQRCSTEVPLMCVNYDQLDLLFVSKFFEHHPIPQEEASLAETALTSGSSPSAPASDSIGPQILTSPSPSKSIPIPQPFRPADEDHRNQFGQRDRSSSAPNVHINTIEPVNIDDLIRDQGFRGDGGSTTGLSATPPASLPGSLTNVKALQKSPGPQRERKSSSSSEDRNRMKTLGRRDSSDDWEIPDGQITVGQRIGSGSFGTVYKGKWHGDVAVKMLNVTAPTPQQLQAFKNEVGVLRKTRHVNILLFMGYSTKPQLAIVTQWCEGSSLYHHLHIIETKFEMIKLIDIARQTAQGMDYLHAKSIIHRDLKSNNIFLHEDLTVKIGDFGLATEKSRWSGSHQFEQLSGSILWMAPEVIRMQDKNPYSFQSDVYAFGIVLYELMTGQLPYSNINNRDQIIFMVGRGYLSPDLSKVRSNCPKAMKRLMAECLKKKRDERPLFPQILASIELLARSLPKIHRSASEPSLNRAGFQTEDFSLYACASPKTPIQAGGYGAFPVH
T4 sequence (Q9BWU1 whole entry): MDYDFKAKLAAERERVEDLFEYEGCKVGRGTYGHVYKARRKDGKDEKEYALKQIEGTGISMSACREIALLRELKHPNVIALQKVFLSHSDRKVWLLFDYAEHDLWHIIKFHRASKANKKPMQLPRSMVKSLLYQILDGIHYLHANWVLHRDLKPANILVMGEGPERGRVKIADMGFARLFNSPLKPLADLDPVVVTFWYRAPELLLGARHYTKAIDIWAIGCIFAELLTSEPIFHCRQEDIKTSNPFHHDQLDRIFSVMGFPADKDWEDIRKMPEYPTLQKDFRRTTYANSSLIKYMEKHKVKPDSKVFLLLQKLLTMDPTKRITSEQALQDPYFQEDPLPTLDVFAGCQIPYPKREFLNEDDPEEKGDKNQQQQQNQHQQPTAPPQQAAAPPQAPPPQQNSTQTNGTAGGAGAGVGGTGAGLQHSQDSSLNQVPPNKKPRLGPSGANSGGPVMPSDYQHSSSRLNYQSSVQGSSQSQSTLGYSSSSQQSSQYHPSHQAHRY
T5 sequence (P09619 33-1106): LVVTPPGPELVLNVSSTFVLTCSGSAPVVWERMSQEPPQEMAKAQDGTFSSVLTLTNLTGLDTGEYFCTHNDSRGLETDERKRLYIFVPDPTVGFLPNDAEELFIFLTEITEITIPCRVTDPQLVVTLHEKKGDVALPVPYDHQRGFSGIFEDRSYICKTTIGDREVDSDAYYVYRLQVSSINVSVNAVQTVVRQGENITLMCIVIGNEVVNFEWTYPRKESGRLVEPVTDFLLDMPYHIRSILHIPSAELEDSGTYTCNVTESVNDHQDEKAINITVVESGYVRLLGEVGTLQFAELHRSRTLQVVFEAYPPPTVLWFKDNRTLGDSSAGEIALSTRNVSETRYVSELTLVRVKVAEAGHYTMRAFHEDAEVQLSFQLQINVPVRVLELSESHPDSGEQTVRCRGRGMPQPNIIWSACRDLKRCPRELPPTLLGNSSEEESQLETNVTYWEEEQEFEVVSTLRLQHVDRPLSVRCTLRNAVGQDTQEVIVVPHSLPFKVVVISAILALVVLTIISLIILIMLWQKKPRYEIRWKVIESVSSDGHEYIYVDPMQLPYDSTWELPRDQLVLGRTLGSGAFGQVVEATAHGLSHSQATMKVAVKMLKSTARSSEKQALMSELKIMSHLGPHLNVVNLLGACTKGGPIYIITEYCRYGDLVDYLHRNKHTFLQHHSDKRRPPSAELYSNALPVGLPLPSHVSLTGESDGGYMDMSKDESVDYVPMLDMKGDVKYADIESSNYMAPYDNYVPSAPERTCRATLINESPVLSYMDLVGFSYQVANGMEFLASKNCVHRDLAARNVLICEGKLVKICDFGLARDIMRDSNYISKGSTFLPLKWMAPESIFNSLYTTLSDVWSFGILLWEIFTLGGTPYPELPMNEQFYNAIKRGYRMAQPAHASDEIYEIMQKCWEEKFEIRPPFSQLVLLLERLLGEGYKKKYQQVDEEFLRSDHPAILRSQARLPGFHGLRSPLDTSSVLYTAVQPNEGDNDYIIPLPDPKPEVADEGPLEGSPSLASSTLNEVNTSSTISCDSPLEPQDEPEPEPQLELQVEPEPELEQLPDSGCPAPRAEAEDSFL
T1 sequence (P04626 23-1255): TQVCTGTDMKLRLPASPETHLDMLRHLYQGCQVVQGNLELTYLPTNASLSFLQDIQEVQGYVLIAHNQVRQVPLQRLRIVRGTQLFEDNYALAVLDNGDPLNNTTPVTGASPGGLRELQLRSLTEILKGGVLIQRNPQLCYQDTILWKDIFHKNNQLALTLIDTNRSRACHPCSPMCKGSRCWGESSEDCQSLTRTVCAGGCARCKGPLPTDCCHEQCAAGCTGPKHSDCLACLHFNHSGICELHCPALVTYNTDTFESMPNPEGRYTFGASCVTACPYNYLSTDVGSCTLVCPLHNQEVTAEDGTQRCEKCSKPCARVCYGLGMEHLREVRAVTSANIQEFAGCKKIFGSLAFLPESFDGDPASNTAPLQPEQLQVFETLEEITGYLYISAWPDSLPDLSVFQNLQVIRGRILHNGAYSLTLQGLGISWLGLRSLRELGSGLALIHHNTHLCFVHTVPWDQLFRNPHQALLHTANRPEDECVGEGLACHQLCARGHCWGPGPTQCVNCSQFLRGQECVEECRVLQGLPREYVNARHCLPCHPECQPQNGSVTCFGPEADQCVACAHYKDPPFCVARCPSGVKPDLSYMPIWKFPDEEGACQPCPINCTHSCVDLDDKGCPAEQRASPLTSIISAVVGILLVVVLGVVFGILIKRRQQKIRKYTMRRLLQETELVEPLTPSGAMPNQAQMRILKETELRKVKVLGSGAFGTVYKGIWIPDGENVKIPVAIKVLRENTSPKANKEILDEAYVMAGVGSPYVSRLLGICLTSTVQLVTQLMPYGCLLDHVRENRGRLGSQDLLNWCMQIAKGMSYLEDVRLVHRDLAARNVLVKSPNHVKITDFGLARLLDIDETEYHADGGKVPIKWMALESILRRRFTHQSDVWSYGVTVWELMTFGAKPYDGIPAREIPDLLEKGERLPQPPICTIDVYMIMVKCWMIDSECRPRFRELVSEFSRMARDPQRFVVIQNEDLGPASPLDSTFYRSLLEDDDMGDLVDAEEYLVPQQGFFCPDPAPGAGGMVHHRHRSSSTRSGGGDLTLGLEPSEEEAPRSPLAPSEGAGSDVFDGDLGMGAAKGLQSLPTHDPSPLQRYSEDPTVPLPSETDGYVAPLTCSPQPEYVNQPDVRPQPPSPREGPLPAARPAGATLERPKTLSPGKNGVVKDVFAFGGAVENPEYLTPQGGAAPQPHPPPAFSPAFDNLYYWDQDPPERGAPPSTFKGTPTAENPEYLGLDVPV
T2 sequence (P29597 897-1176 limits assumed): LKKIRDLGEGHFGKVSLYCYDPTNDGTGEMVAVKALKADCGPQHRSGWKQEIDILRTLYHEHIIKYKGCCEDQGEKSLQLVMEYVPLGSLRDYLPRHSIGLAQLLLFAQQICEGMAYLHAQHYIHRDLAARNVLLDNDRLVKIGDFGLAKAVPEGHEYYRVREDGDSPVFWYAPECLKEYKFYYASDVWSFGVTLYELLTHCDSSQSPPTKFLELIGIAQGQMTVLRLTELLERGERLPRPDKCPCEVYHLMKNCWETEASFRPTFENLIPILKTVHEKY
T8 sequence (P16234 24-1089): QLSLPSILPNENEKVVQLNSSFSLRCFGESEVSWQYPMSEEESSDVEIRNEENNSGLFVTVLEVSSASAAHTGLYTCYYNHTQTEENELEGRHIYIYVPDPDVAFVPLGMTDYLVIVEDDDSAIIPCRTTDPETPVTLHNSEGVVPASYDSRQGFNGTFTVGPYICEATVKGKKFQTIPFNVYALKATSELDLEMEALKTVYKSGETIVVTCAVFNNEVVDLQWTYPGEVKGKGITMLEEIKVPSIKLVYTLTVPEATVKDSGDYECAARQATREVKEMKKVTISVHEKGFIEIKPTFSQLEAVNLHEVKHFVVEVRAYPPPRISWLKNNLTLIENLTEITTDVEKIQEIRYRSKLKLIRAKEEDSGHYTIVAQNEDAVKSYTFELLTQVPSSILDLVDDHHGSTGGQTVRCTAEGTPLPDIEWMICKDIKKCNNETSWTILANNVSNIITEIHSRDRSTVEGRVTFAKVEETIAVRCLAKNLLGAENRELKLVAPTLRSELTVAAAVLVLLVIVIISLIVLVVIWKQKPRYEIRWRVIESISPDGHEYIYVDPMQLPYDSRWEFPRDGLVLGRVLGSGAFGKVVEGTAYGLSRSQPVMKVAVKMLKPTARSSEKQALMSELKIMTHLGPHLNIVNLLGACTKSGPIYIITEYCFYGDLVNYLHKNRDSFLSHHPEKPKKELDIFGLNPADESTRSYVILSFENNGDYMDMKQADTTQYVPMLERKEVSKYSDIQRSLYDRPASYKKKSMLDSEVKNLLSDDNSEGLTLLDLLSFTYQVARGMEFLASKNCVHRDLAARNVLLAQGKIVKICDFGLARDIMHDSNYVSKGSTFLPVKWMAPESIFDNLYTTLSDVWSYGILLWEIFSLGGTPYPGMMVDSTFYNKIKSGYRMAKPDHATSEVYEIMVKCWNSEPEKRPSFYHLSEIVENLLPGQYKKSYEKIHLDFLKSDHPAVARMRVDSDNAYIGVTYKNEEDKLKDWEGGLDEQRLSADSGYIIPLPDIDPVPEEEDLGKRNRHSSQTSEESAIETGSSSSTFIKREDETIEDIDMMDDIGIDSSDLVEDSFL
T10 sequence (P15056 whole entry): as the sequence (P15056 whole entry V600E) above, with E600V counted along it

Cc1ccc(NC(=O)c2[nH]c(C(F)(F)F)nc2-c2ccc(F)cc2)cc1Nc1ccc2ncn(C)c(=O)c2c1 [KIN-035]
inhibition of ERBB2 (ERBB2): X (X > 25% @ 1 μM)
inhibition of TYK2 (catalytic) (TYK2 (catalytic)): X (X > 25% @ 1 μM)
inhibition of PLK4 (PLK4): X (X > 25% @ 1 μM)
inhibition of CDK11 (CDK11): XX (XX > 50% @ 1 μM)
inhibition of PDGFRB (PDGFRB): XXX (XXX > 75% @ 1 μM)
inhibition of KIT (KIT): XXXX (XXXX > 90% @ 1 μM)
inhibition of p38-alpha (p38-alpha): XXXX (XXXX > 90% @ 1 μM)
inhibition of RIOK2 (RIOK2): X (X > 25% @ 1 μM)
inhibition of PDGFRA (PDGFRA): XX (XX > 50% @ 1 μM)
inhibition of p38-beta (p38-beta): X (X > 25% @ 1 μM)
inhibition of BRAF (BRAF): XXXX (XXXX > 90% @ 1 μM)
inhibition of PRKCE (PRKCE): X (X > 25% @ 1 μM)
inhibition of BRAF(V600E) (BRAF(V600E)): XXXX (XXXX > 90% @ 1 μM)
inhibition of MKNK1 (MKNK1): XX (XX > 50% @ 1 μM)
inhibition of PIK3CA (PIK3CA): X (X > 25% @ 1 μM)

Cc1ccc(-c2nc(C(F)(F)F)[nH]c2C(=O)Nc2ccc(C)c(Nc3ccc4ncn(C)c(=O)c4c3)c2)cc1F [KIN-038]
inhibition of ERBB2 (ERBB2): X (X > 25% @ 1 μM)
inhibition of TYK2 (catalytic) (TYK2 (catalytic)): X (X > 25% @ 1 μM)
inhibition of PLK4 (PLK4): X (X > 25% @ 1 μM)
inhibition of CDK11 (CDK11): X (X > 25% @ 1 μM)
inhibition of PDGFRB (PDGFRB): XX (XX > 50% @ 1 μM)
inhibition of KIT (KIT): XXXX (XXXX > 90% @ 1 μM)
inhibition of p38-alpha (p38-alpha): XX (XX > 50% @ 1 μM)
inhibition of RIOK2 (RIOK2): X (X > 25% @ 1 μM)
inhibition of PDGFRA (PDGFRA): XX (XX > 50% @ 1 μM)
inhibition of p38-beta (p38-beta): X (X > 25% @ 1 μM)
inhibition of BRAF (BRAF): XXX (XXX > 75% @ 1 μM)
inhibition of PRKCE (PRKCE): X (X > 25% @ 1 μM)
inhibition of BRAF(V600E) (BRAF(V600E)): XXXX (XXXX > 90% @ 1 μM)
inhibition of MKNK1 (MKNK1): X (X > 25% @ 1 μM)
inhibition of PIK3CA (PIK3CA): X (X > 25% @ 1 μM)
